pIC50: −log10 of the molar value.
Target: T1, Protein deacetylase HDAC6 (Homo sapiens, UniProt Q9UBN7)
T1 sequence (Q9UBN7 whole entry): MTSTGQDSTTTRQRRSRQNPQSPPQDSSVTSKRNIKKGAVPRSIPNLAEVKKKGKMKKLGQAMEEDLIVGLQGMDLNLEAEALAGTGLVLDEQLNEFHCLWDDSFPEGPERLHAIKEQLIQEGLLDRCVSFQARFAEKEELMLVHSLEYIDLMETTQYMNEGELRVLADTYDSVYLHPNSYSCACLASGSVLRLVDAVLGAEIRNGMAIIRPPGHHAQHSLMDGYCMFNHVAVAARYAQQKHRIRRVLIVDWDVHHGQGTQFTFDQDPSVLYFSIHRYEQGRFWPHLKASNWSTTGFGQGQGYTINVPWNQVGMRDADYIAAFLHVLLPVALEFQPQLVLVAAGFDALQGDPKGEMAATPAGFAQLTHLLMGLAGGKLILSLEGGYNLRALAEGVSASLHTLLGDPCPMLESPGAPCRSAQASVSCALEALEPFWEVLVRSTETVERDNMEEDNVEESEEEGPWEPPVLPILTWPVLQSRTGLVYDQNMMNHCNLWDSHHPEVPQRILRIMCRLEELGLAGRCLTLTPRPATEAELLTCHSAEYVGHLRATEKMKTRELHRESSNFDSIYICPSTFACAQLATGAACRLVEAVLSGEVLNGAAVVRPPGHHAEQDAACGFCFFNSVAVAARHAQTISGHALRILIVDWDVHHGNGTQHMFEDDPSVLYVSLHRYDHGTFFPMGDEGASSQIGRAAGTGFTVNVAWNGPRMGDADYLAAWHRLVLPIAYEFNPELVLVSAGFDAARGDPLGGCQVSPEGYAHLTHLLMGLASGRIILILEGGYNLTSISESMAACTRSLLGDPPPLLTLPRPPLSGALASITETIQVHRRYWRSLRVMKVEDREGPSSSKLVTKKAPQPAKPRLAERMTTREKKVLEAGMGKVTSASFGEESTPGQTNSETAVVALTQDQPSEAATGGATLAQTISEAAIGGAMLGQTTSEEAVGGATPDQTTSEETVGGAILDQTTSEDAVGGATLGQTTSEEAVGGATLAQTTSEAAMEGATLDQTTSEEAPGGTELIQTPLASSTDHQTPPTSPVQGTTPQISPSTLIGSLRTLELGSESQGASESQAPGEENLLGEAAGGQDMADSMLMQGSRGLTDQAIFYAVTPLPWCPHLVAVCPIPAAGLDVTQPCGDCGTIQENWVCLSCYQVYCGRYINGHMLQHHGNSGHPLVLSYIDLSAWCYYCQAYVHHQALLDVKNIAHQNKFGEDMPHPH
Assay: Inhibition of human recombinant HDAC6 expressed in baculovirus infected insect high5 cells using Boc-Lys (epsilon-acetyl)-AM) as substrate after 3 to 24 hrs by fluorescence assay
Conditions: not given

Row | pIC50 | Structure (SMILES)
1 | 7.38 | COc1cc([C@@H]2c3cc4c(cc3[C@@H](Nc3cccc(OCCCCC(=O)NO)c3)[C@H]3COC(=O)[C@H]23)OCO4)cc(OC)c1O
2 | 7.82 | COc1cc([C@@H]2c3cc4c(cc3[C@@H](Nc3cccc(OCCCCCC(=O)NO)c3)[C@H]3COC(=O)[C@H]23)OCO4)cc(OC)c1O
3 | 7.16 | COc1cc([C@@H]2c3cc4c(cc3[C@@H](Nc3cccc(OCCCCCCCC(=O)NO)c3)[C@H]3COC(=O)[C@H]23)OCO4)cc(OC)c1O
4 | 5.97 | COc1cc([C@@H]2c3cc4c(cc3[C@@H](Nc3ccc(NC(=O)CCCCC(=O)NO)cc3)[C@H]3COC(=O)[C@H]23)OCO4)cc(OC)c1O
5 | 7.06 | COc1cc([C@@H]2c3cc4c(cc3[C@@H](Nc3ccc(OCCCCC(=O)NO)cc3)[C@H]3COC(=O)[C@H]23)OCO4)cc(OC)c1O
6 | 7.70 | COc1cc([C@@H]2c3cc4c(cc3[C@@H](Nc3ccccc3OCCCCCC(=O)NO)[C@H]3COC(=O)[C@H]23)OCO4)cc(OC)c1O
7 | 6.80 | COc1cc([C@@H]2c3cc4c(cc3[C@@H](Nc3cccc(NC(=O)CCCCCC(=O)NO)c3)[C@H]3COC(=O)[C@H]23)OCO4)cc(OC)c1O
8 | 6.28 | COc1cc([C@@H]2c3cc4c(cc3[C@@H](Nc3cccc(NC(=O)CCCCC(=O)NO)c3)[C@H]3COC(=O)[C@H]23)OCO4)cc(OC)c1O
9 | 7.28 | COc1cc([C@@H]2c3cc4c(cc3[C@@H](Nc3ccc(OCCCCCCCC(=O)NO)cc3)[C@H]3COC(=O)[C@H]23)OCO4)cc(OC)c1O
10 | 6.66 | COc1cc([C@@H]2c3cc4c(cc3[C@@H](Nc3ccccc3OCCCCCCCC(=O)NO)[C@H]3COC(=O)[C@H]23)OCO4)cc(OC)c1O
11 | 6.45 | COc1cc([C@@H]2c3cc4c(cc3[C@@H](Nc3ccccc3OCCCC(=O)NO)[C@H]3COC(=O)[C@H]23)OCO4)cc(OC)c1O
12 | 7.59 | COc1cc([C@@H]2c3cc4c(cc3[C@@H](Nc3ccc(OCCCCCC(=O)NO)cc3)[C@H]3COC(=O)[C@H]23)OCO4)cc(OC)c1O
13 | 6.39 | COc1cc([C@@H]2c3cc4c(cc3[C@@H](Nc3cccc(OCCCC(=O)NO)c3)[C@H]3COC(=O)[C@H]23)OCO4)cc(OC)c1O

Target: Histone deacetylase 3 (Homo sapiens, UniProt O15379)
Sequence (O15379 whole entry): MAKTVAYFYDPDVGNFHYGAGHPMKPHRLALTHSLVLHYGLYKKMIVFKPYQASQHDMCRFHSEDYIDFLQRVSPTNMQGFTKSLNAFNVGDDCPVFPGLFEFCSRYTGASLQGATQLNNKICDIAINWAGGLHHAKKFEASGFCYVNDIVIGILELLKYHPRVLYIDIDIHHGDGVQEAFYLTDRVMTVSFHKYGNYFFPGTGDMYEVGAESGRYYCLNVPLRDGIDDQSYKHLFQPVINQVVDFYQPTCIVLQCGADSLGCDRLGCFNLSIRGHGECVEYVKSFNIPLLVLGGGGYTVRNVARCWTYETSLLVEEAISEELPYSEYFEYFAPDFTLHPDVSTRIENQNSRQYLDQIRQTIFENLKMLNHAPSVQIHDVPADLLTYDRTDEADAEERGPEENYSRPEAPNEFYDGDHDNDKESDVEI
Assay: Inhibition of human recombinant HDAC3 expressed in baculovirus infected insect high5 cells using Ac-Lys-Tyr-Lys (epsilon-acetyl)-AMC as substrate after 3 to 24 hrs by fluorescence assay
Conditions: not given

Row | pIC50 | Structure (SMILES)
14 | 6.95 | COc1cc([C@@H]2c3cc4c(cc3[C@@H](Nc3cccc(OCCCCC(=O)NO)c3)[C@H]3COC(=O)[C@H]23)OCO4)cc(OC)c1O
15 | 7.09 | COc1cc([C@@H]2c3cc4c(cc3[C@@H](Nc3cccc(OCCCCCC(=O)NO)c3)[C@H]3COC(=O)[C@H]23)OCO4)cc(OC)c1O
16 | 7.16 | COc1cc([C@@H]2c3cc4c(cc3[C@@H](Nc3cccc(OCCCCCCCC(=O)NO)c3)[C@H]3COC(=O)[C@H]23)OCO4)cc(OC)c1O
17 | 5.77 | COc1cc([C@@H]2c3cc4c(cc3[C@@H](Nc3ccc(NC(=O)CCCCC(=O)NO)cc3)[C@H]3COC(=O)[C@H]23)OCO4)cc(OC)c1O
18 | 6.62 | COc1cc([C@@H]2c3cc4c(cc3[C@@H](Nc3ccc(OCCCCC(=O)NO)cc3)[C@H]3COC(=O)[C@H]23)OCO4)cc(OC)c1O
19 | 6.73 | COc1cc([C@@H]2c3cc4c(cc3[C@@H](Nc3ccccc3OCCCCCC(=O)NO)[C@H]3COC(=O)[C@H]23)OCO4)cc(OC)c1O
20 | 6.23 | COc1cc([C@@H]2c3cc4c(cc3[C@@H](Nc3cccc(NC(=O)CCCCCC(=O)NO)c3)[C@H]3COC(=O)[C@H]23)OCO4)cc(OC)c1O
21 | 5.68 | COc1cc([C@@H]2c3cc4c(cc3[C@@H](Nc3cccc(NC(=O)CCCCC(=O)NO)c3)[C@H]3COC(=O)[C@H]23)OCO4)cc(OC)c1O
22 | 7.28 | COc1cc([C@@H]2c3cc4c(cc3[C@@H](Nc3ccc(OCCCCCCCC(=O)NO)cc3)[C@H]3COC(=O)[C@H]23)OCO4)cc(OC)c1O
23 | 6.66 | COc1cc([C@@H]2c3cc4c(cc3[C@@H](Nc3ccccc3OCCCCCCCC(=O)NO)[C@H]3COC(=O)[C@H]23)OCO4)cc(OC)c1O
24 | 5.84 | COc1cc([C@@H]2c3cc4c(cc3[C@@H](Nc3ccccc3OCCCC(=O)NO)[C@H]3COC(=O)[C@H]23)OCO4)cc(OC)c1O
25 | 7.16 | COc1cc([C@@H]2c3cc4c(cc3[C@@H](Nc3ccc(OCCCCCC(=O)NO)cc3)[C@H]3COC(=O)[C@H]23)OCO4)cc(OC)c1O
26 | 6.12 | COc1cc([C@@H]2c3cc4c(cc3[C@@H](Nc3cccc(OCCCC(=O)NO)c3)[C@H]3COC(=O)[C@H]23)OCO4)cc(OC)c1O

Test system: HCT-116
Assay: cells
Conditions: Homo sapiens, HCT-116, 72 h
Description: Antiproliferative activity against human HCT116 cells assessed as cell viability after 72 hrs by MTT assay

Row | pIC50 | Structure (SMILES)
27 | 5.20 | COc1cc([C@@H]2c3cc4c(cc3[C@@H](Nc3cccc(OCCCCC(=O)NO)c3)[C@H]3COC(=O)[C@H]23)OCO4)cc(OC)c1O
28 | 5.24 | COc1cc([C@@H]2c3cc4c(cc3[C@@H](Nc3cccc(OCCCCCC(=O)NO)c3)[C@H]3COC(=O)[C@H]23)OCO4)cc(OC)c1O
29 | 5.28 | COc1cc([C@@H]2c3cc4c(cc3[C@@H](Nc3cccc(OCCCCCCCC(=O)NO)c3)[C@H]3COC(=O)[C@H]23)OCO4)cc(OC)c1O
30 | 5.42 | COc1cc([C@@H]2c3cc4c(cc3[C@@H](Nc3ccc(NC(=O)CCCCC(=O)NO)cc3)[C@H]3COC(=O)[C@H]23)OCO4)cc(OC)c1O
31 | 5.28 | COc1cc([C@@H]2c3cc4c(cc3[C@@H](Nc3ccc(OCCCCC(=O)NO)cc3)[C@H]3COC(=O)[C@H]23)OCO4)cc(OC)c1O
32 | 5.09 | COc1cc([C@@H]2c3cc4c(cc3[C@@H](Nc3ccccc3OCCCCCC(=O)NO)[C@H]3COC(=O)[C@H]23)OCO4)cc(OC)c1O
33 | 4.71 | COc1cc([C@@H]2c3cc4c(cc3[C@@H](Nc3cccc(NC(=O)CCCCCC(=O)NO)c3)[C@H]3COC(=O)[C@H]23)OCO4)cc(OC)c1O
34 | 4.85 | COc1cc([C@@H]2c3cc4c(cc3[C@@H](Nc3cccc(NC(=O)CCCCC(=O)NO)c3)[C@H]3COC(=O)[C@H]23)OCO4)cc(OC)c1O
35 | 5.43 | COc1cc([C@@H]2c3cc4c(cc3[C@@H](Nc3ccc(OCCCCCCCC(=O)NO)cc3)[C@H]3COC(=O)[C@H]23)OCO4)cc(OC)c1O
36 | 4.95 | COc1cc([C@@H]2c3cc4c(cc3[C@@H](Nc3ccccc3OCCCCCCCC(=O)NO)[C@H]3COC(=O)[C@H]23)OCO4)cc(OC)c1O
37 | 4.54 | COc1cc([C@@H]2c3cc4c(cc3[C@@H](Nc3ccccc3OCCCC(=O)NO)[C@H]3COC(=O)[C@H]23)OCO4)cc(OC)c1O
38 | 5.31 | COc1cc([C@@H]2c3cc4c(cc3[C@@H](Nc3ccc(OCCCCCC(=O)NO)cc3)[C@H]3COC(=O)[C@H]23)OCO4)cc(OC)c1O
39 | 4.53 | COc1cc([C@@H]2c3cc4c(cc3[C@@H](Nc3cccc(OCCCC(=O)NO)c3)[C@H]3COC(=O)[C@H]23)OCO4)cc(OC)c1O

Target: Histone deacetylase 1 (Homo sapiens, UniProt Q13547)
Sequence (Q13547 whole entry): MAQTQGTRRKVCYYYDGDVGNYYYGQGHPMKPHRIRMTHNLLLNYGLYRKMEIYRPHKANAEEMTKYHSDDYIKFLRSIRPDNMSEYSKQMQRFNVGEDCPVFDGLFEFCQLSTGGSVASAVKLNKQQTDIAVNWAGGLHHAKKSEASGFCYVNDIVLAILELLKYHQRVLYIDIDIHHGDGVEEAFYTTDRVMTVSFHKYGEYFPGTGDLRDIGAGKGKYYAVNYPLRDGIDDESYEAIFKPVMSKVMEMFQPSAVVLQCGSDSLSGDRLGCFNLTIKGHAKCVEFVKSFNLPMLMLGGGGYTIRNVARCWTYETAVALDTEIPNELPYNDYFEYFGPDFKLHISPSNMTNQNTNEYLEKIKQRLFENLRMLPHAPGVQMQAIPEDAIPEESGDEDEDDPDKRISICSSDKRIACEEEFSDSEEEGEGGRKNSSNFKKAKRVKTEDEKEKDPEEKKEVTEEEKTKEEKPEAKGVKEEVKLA
Assay: Inhibition of human recombinant HDAC1 expressed in baculovirus infected insect high5 cells using Ac-Lys-Tyr-Lys (epsilon-acetyl)-AMC as substrate after 3 to 24 hrs by fluorescence assay
Conditions: not given

Row | pIC50 | Structure (SMILES)
40 | 7.03 | COc1cc([C@@H]2c3cc4c(cc3[C@@H](Nc3cccc(OCCCCC(=O)NO)c3)[C@H]3COC(=O)[C@H]23)OCO4)cc(OC)c1O
41 | 7.35 | COc1cc([C@@H]2c3cc4c(cc3[C@@H](Nc3cccc(OCCCCCC(=O)NO)c3)[C@H]3COC(=O)[C@H]23)OCO4)cc(OC)c1O
42 | 7.41 | COc1cc([C@@H]2c3cc4c(cc3[C@@H](Nc3cccc(OCCCCCCCC(=O)NO)c3)[C@H]3COC(=O)[C@H]23)OCO4)cc(OC)c1O
43 | 5.55 | COc1cc([C@@H]2c3cc4c(cc3[C@@H](Nc3ccc(NC(=O)CCCCC(=O)NO)cc3)[C@H]3COC(=O)[C@H]23)OCO4)cc(OC)c1O
44 | 6.90 | COc1cc([C@@H]2c3cc4c(cc3[C@@H](Nc3ccc(OCCCCC(=O)NO)cc3)[C@H]3COC(=O)[C@H]23)OCO4)cc(OC)c1O
45 | 6.84 | COc1cc([C@@H]2c3cc4c(cc3[C@@H](Nc3ccccc3OCCCCCC(=O)NO)[C@H]3COC(=O)[C@H]23)OCO4)cc(OC)c1O
46 | 6.42 | COc1cc([C@@H]2c3cc4c(cc3[C@@H](Nc3cccc(NC(=O)CCCCCC(=O)NO)c3)[C@H]3COC(=O)[C@H]23)OCO4)cc(OC)c1O
47 | 5.84 | COc1cc([C@@H]2c3cc4c(cc3[C@@H](Nc3cccc(NC(=O)CCCCC(=O)NO)c3)[C@H]3COC(=O)[C@H]23)OCO4)cc(OC)c1O
48 | 7.06 | COc1cc([C@@H]2c3cc4c(cc3[C@@H](Nc3ccc(OCCCCCCCC(=O)NO)cc3)[C@H]3COC(=O)[C@H]23)OCO4)cc(OC)c1O
49 | 6.76 | COc1cc([C@@H]2c3cc4c(cc3[C@@H](Nc3ccccc3OCCCCCCCC(=O)NO)[C@H]3COC(=O)[C@H]23)OCO4)cc(OC)c1O
50 | 6.24 | COc1cc([C@@H]2c3cc4c(cc3[C@@H](Nc3ccccc3OCCCC(=O)NO)[C@H]3COC(=O)[C@H]23)OCO4)cc(OC)c1O
51 | 6.68 | COc1cc([C@@H]2c3cc4c(cc3[C@@H](Nc3ccc(OCCCCCC(=O)NO)cc3)[C@H]3COC(=O)[C@H]23)OCO4)cc(OC)c1O
52 | 6.41 | COc1cc([C@@H]2c3cc4c(cc3[C@@H](Nc3cccc(OCCCC(=O)NO)c3)[C@H]3COC(=O)[C@H]23)OCO4)cc(OC)c1O
